Assay results as given in PMC3119665, “A New Drug Design Targeting the Adenosinergic System for Huntington's Disease” (PLoS ONE, 2011).

Legend:
[1] = target: T1, A1 adenosine receptor (Homo sapiens, UniProt P30542); assay: Radioligand binding assay
T1 construct: MDS Pharma Services Taiwan
T1 sequence (P30542 1-326): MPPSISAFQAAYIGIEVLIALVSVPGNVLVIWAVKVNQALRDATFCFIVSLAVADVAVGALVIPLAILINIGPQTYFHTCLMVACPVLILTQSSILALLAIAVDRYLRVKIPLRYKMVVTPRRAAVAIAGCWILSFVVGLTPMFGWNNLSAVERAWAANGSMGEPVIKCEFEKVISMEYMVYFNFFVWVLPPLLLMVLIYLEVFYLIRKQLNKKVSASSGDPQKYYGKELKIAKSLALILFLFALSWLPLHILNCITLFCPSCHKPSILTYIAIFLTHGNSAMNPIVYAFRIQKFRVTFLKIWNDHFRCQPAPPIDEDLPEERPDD

[2] = target: T2, Adrenergic α 1A (Rattus norvegicus, UniProt P43140); assay: Radioligand binding panel (Table S1); details: 10 μM T1-11, n 2
T2 construct: purchased MDS Pharma Services Taiwan

[3] = target: T3, Adrenergic α 2C (Homo sapiens, UniProt P18825); assay: Radioligand binding panel (Table S1); details: 10 μM T1-11, n 2
T3 construct: purchased MDS Pharma Services Taiwan
T3 sequence (P18825 whole entry): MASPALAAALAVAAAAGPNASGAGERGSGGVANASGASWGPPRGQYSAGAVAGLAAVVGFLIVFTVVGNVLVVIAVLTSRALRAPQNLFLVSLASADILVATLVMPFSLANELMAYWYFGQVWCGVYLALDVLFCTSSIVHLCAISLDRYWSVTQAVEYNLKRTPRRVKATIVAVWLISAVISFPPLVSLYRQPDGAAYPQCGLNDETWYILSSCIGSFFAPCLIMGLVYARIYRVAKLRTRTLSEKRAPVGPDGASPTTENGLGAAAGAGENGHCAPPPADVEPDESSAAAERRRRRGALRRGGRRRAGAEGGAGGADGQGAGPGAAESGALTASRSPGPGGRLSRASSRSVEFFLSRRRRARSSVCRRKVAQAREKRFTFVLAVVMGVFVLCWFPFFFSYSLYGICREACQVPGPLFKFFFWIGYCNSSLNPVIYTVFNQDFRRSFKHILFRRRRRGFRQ

[4] = system: Adrenergic β, Non-Selective; assay: Radioligand binding panel (Table S1); parameters: species or system rat; details: 10 μM T1-11, n 2
[5] = target: T4, Adrenergic β 1 (Homo sapiens, UniProt P08588); assay: Radioligand binding panel (Table S1); details: 10 μM T1-11, n 2
T4 construct: purchased MDS Pharma Services Taiwan

[6] = target: T5, Adrenomedullin AM2 (Homo sapiens, UniProt O60896+Q16602); assay: Radioligand binding panel (Table S1); details: 10 μM T1-11, n 2
T5 construct: purchased MDS Pharma Services Taiwan
T5 sequence (Q16602 23-461): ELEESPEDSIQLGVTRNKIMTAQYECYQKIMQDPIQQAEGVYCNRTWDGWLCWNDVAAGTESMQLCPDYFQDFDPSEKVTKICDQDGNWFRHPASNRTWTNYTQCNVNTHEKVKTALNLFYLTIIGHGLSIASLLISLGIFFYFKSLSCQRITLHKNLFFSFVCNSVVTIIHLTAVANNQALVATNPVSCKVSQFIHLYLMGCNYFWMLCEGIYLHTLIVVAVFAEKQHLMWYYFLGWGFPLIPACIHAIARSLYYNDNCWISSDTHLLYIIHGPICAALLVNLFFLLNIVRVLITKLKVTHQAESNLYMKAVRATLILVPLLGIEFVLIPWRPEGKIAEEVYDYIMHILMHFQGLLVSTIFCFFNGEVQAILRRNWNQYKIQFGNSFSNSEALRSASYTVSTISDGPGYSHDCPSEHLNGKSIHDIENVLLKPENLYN
T5 sequence (O60896 24-148 partner): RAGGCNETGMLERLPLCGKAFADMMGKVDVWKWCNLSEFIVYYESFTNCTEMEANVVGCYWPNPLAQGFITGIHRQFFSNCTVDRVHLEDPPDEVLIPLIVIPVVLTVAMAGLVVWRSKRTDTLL

[7] = target: T6, APJ (Homo sapiens, UniProt P35414); assay: Radioligand binding panel (Table S1); details: 10 μM T1-11, n 2
T6 construct: purchased MDS Pharma Services Taiwan

[8] = system: Chemokine CXCR1/2 (IL-8, Non-Selective); assay: Radioligand binding panel (Table S1); parameters: species or system human; details: 10 μM T1-11, n 2
[9] = target: T7, Cyclooxygenase COX-2 (Homo sapiens, UniProt P35354); assay: Radioligand binding panel (Table S1); details: 10 μM T1-11, n 2
T7 construct: purchased MDS Pharma Services Taiwan
T7 sequence (P35354 18-604): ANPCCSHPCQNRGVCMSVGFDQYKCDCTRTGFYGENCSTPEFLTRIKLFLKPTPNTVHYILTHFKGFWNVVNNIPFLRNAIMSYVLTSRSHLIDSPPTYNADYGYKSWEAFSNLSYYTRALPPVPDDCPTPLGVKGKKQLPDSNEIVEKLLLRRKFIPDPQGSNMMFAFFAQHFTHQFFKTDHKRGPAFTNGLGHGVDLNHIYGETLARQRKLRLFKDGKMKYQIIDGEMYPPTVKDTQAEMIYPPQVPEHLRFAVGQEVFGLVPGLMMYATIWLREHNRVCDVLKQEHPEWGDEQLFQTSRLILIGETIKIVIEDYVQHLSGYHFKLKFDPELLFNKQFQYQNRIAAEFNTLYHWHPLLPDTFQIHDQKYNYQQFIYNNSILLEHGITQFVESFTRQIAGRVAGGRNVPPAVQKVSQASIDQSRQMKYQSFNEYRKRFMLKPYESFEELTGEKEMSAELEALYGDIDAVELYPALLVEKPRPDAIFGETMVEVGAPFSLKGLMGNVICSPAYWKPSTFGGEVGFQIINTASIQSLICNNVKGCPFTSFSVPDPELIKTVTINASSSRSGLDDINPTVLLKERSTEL

[10] = target: T8, Dopamine D3 (Homo sapiens, UniProt P35462); assay: Radioligand binding panel (Table S1); details: 10 μM T1-11, n 2
T8 construct: purchased MDS Pharma Services Taiwan

[11] = target: T9, Dopamine D4.2 (Homo sapiens, UniProt P21917, DEL265-296); assay: Radioligand binding panel (Table S1); details: 10 μM T1-11, n 2
T9 construct: purchased MDS Pharma Services Taiwan

[12] = target: T10, G Protein-Coupled Receptor, GPR103 (Homo sapiens, UniProt Q96P65); assay: Radioligand binding panel (Table S1); details: 10 μM T1-11, n 2
T10 construct: purchased MDS Pharma Services Taiwan

[13] = system: Glutamate, NMDA, Agonism; assay: Radioligand binding panel (Table S1); parameters: species or system rat; details: 10 μM T1-11, n 2
[14] = system: Glutamate, NMDA, Polyamine; assay: Radioligand binding panel (Table S1); parameters: species or system rat; details: 10 μM T1-11, n 2
[15] = target: T11, Histamine H2 (Homo sapiens, UniProt P25021); assay: Radioligand binding panel (Table S1); details: 10 μM T1-11, n 2
T11 construct: purchased MDS Pharma Services Taiwan
T11 sequence (P25021 whole entry): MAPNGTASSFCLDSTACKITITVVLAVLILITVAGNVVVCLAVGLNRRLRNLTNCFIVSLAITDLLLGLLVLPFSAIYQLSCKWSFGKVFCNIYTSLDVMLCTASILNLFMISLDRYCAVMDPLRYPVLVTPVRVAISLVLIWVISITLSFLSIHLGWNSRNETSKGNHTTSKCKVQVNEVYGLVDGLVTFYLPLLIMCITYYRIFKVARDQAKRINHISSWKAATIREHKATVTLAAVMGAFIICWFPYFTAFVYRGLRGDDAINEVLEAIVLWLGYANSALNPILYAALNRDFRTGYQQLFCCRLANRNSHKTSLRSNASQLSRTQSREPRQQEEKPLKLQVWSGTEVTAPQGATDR

[16] = system: Imidazoline I2, Central; assay: Radioligand binding panel (Table S1); parameters: species or system rat; details: 10 μM T1-11, n 2
[17] = target: T12, Interleukin IL-1 (Mus musculus, UniProt P13504); assay: Radioligand binding panel (Table S1); details: 10 μM T1-11, n 2
T12 construct: purchased MDS Pharma Services Taiwan

[18] = target: T13, Motilin (Homo sapiens, UniProt O43193); assay: Radioligand binding panel (Table S1); details: 10 μM T1-11, n 2
T13 construct: purchased MDS Pharma Services Taiwan

[19] = system: Muscarinic, Non-Selective, Central; assay: Radioligand binding panel (Table S1); parameters: species or system rat; details: 10 μM T1-11, n 2
[20] = target: T14, Neuromedin U NMU2 (Homo sapiens, UniProt Q9GZQ4); assay: Radioligand binding panel (Table S1); details: 10 μM T1-11, n 2
T14 construct: purchased MDS Pharma Services Taiwan
T14 sequence (Q9GZQ4 whole entry): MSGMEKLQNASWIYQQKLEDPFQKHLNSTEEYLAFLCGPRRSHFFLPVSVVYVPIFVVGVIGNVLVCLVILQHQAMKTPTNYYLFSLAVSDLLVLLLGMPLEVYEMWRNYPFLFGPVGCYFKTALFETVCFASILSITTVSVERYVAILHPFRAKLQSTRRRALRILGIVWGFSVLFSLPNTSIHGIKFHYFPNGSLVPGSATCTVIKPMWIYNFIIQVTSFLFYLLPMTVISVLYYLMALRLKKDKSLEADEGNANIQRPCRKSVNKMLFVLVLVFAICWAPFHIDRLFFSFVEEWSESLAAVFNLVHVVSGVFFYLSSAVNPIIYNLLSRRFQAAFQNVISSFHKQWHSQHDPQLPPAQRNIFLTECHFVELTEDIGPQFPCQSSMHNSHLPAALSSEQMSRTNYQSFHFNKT

[21] = target: T15, Neuropeptide Y Y2 (Homo sapiens, UniProt P49146); assay: Radioligand binding panel (Table S1); details: 10 μM T1-11, n 2
T15 construct: purchased MDS Pharma Services Taiwan

[22] = system: Opiate, Non-Selective; assay: Radioligand binding panel (Table S1); parameters: species or system rat; details: 10 μM T1-11, n 2
[23] = target: T16, Orexin OX 1 (Homo sapiens, UniProt O43613); assay: Radioligand binding panel (Table S1); details: 10 μM T1-11, n 2
T16 construct: purchased MDS Pharma Services Taiwan
T16 sequence (O43613 whole entry): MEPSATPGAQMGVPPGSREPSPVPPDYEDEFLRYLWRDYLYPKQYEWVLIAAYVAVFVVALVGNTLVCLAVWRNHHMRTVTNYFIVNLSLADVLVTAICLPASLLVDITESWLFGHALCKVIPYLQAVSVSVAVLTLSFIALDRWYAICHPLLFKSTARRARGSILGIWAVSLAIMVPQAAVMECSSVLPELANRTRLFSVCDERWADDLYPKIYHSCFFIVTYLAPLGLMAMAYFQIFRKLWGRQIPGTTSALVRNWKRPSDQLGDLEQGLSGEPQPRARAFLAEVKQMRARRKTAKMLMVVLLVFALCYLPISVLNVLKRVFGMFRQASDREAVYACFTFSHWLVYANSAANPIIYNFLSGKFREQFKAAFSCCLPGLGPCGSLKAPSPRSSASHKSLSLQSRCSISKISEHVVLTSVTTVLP

[24] = target: T17, Orphanin ORL1 (Homo sapiens, UniProt P41146); assay: Radioligand binding panel (Table S1); details: 10 μM T1-11, n 2
T17 construct: purchased MDS Pharma Services Taiwan
T17 sequence (P41146 whole entry): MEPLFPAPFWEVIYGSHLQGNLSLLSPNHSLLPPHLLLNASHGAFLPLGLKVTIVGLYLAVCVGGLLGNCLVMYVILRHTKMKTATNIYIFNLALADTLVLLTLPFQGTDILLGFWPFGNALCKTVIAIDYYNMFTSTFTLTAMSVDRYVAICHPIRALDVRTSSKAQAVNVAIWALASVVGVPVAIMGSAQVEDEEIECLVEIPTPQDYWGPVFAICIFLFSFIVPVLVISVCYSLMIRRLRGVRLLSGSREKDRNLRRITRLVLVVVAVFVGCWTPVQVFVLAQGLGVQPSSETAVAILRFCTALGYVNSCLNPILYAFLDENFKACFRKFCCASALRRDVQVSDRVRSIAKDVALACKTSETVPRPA

[25] = system: Phosphodiesterase PDE1; assay: Radioligand binding panel (Table S1); parameters: species or system bovine; details: 10 μM T1-11, n 2
[26] = system: Potassium Channel [KA]; assay: Radioligand binding panel (Table S1); parameters: species or system rat; details: 10 μM T1-11, n 2
[27] = system: Potassium Channel [SKCA]; assay: Radioligand binding panel (Table S1); parameters: species or system rat; details: 10 μM T1-11, n 2
[28] = system: Progesterone; assay: Radioligand binding panel (Table S1); parameters: species or system bovine; details: 10 μM T1-11, n 2
[29] = target: T18, Prostanoid EP2 (Homo sapiens, UniProt P43116); assay: Radioligand binding panel (Table S1); details: 10 μM T1-11, n 2
T18 construct: purchased MDS Pharma Services Taiwan
T18 sequence (P43116 whole entry): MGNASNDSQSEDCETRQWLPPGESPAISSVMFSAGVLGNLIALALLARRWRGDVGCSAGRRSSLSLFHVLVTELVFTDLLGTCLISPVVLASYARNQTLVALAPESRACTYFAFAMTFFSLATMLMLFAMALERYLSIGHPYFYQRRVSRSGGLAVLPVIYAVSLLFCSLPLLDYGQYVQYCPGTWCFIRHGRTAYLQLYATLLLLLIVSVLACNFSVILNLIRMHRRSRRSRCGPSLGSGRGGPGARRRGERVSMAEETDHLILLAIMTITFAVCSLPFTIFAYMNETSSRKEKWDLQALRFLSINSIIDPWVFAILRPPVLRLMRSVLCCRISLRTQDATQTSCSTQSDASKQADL

[30] = target: T19, Prostanoid EP4 (Homo sapiens, UniProt P35408); assay: Radioligand binding panel (Table S1); details: 10 μM T1-11, n 2
T19 construct: purchased MDS Pharma Services Taiwan
T19 sequence (P35408 whole entry): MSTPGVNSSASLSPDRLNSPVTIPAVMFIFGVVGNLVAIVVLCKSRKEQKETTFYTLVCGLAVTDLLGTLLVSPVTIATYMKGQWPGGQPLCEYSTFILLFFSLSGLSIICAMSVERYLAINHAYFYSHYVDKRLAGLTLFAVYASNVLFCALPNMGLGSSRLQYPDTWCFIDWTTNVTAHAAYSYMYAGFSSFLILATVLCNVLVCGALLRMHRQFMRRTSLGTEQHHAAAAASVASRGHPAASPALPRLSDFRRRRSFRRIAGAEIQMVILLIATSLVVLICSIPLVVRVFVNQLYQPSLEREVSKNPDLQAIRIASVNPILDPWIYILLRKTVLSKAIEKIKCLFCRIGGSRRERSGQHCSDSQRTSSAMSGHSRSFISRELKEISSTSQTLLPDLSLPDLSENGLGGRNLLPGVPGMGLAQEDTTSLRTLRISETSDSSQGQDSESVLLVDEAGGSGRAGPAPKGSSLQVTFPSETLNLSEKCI

[31] = system: Purinergic P 2X; assay: Radioligand binding panel (Table S1); parameters: species or system rabbit; details: 10 μM T1-11, n 2
[32] = system: Purinergic P 2Y; assay: Radioligand binding panel (Table S1); parameters: species or system rat; details: 10 μM T1-11, n 2
[33] = target: T20, Serotonin (5-Hydroxytryptamine) 5-HT2B (Homo sapiens, UniProt P41595); assay: Radioligand binding panel (Table S1); details: 10 μM T1-11, n 2
T20 construct: purchased MDS Pharma Services Taiwan

[34] = target: T21, Serotonin (5-Hydroxytryptamine) 5-HT5A (Homo sapiens, UniProt P47898); assay: Radioligand binding panel (Table S1); details: 10 μM T1-11, n 2
T21 construct: purchased MDS Pharma Services Taiwan

[35] = target: T22, Sigma σ1 (Homo sapiens, UniProt Q99720); assay: Radioligand binding panel (Table S1); details: 10 μM T1-11, n 2
T22 construct: purchased MDS Pharma Services Taiwan
T22 sequence (Q99720 whole entry): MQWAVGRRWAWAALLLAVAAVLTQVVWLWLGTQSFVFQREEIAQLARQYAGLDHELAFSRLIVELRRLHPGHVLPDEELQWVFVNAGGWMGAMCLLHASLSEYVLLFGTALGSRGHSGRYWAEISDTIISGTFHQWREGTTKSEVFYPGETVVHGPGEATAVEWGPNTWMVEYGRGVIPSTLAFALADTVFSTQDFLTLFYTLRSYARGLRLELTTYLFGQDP

[36] = target: T23, Tachykinin NK1 (Homo sapiens, UniProt P25103); assay: Radioligand binding panel (Table S1); details: 10 μM T1-11, n 2
T23 construct: purchased MDS Pharma Services Taiwan

[37] = system: Transforming Growth Factor-β (TGF-β); assay: Radioligand binding panel (Table S1); parameters: species or system mouse; details: 10 μM T1-11, n 2
[38] = system: Transporter, Glycin.e; assay: Radioligand binding panel (Table S1); parameters: species or system rat; details: 10 μM T1-11, n 2
[39] = target: T24, Urotensin II (Homo sapiens, UniProt Q9UKP6); assay: Radioligand binding panel (Table S1); details: 10 μM T1-11, n 2
T24 construct: purchased MDS Pharma Services Taiwan
T24 sequence (Q9UKP6 whole entry): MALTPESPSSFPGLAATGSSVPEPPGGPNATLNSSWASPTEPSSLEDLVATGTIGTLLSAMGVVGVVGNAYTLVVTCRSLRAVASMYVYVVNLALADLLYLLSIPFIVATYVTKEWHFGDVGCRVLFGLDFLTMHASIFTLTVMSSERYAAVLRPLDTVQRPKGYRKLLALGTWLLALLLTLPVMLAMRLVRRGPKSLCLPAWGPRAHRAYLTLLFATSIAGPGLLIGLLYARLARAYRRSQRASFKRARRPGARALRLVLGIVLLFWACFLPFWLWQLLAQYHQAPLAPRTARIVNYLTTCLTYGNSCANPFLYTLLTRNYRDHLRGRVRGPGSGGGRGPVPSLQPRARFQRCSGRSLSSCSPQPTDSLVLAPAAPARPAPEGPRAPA

[40] = target: T25, Vasopressin V1B (Homo sapiens, UniProt P47901); assay: Radioligand binding panel (Table S1); details: 10 μM T1-11, n 2
T25 construct: purchased MDS Pharma Services Taiwan

[41] = n.s. = not significant, no significant binding at 10 µM

## OC[C@H]1O[C@@H](n2cnc3c(NCc4ccc(O)cc4)ncnc32)[C@H](O)[C@@H]1O [T1-11, N ^6-(4-hydroxybenzyl)adenine riboside]
[1]; 10 μM T1-11, n 2
  inhibition at 10 µM: 23%
[1]; [41]
  IC50: n.s.
  Ki: n.s.
[2]
  inhibition at 10 µM: -14%
[3]
  inhibition at 10 µM: 10%
[4]
  % Inhibition: 10%
[5]
  inhibition at 10 µM: 7%
[6]
  inhibition at 10 µM: 9%
[7]
  inhibition at 10 µM: 21%
[8]
  % Inhibition: 10%
[9]
  inhibition at 10 µM: 0%
[10]
  inhibition at 10 µM: -7%
[11]
  inhibition at 10 µM: 3%
[12]
  inhibition at 10 µM: 2%
[13]
  % Inhibition: 10%
[14]
  % Inhibition: 10%
[15]
  inhibition at 10 µM: -10%
[16]
  % Inhibition: 3%
[17]
  inhibition at 10 µM: 4%
[18]
  inhibition at 10 µM: -2%
[19]
  % Inhibition: 12%
[20]
  inhibition at 10 µM: 5%
[21]
  inhibition at 10 µM: 4%
[22]
  % Inhibition: -13%
[23]
  inhibition at 10 µM: -13%
[24]
  inhibition at 10 µM: 10%
[25]
  % Inhibition: 26%
[26]
  % Inhibition: 1%
[27]
  % Inhibition: 1%
[28]
  % Inhibition: 9%
[29]
  inhibition at 10 µM: 10%
[30]
  inhibition at 10 µM: -6%
[31]
  % Inhibition: 11%
[32]
  % Inhibition: 17%
[33]
  inhibition at 10 µM: 5%
[34]
  inhibition at 10 µM: -7%
[35]
  inhibition at 10 µM: 7%
[36]
  inhibition at 10 µM: 3%
[37]
  % Inhibition: -1%
[38]
  % Inhibition: 1%
[39]
  inhibition at 10 µM: 6%
[40]
  inhibition at 10 µM: -18%
